{
  "source": "patent US20250032458A1",
  "about": "“TREATMENT OF CANCER WITH AN FGFR KINASE INHIBITOR” (Kinnate Biopharma Inc., priority 2021, published 2025)",
  "key": {"[1]": {"test_system": "SNU-16 cells", "experiment": "Cell proliferation, 5-day CellTiter-Glo", "format": "cell-based", "settings": "Homo sapiens, 120 h; SNU-16, 5 days; read-out: 5-Day CTG EC50"}, "[2]": {"test_system": "KATO-III cells", "experiment": "Cell proliferation, 5-day CellTiter-Glo", "format": "cell-based", "settings": "Homo sapiens, 120 h, 5 days, read-out: 5-Day CTG EC50"}, "[3]": {"test_system": "RT-112 cells", "experiment": "Cell proliferation, 5-day CellTiter-Glo", "format": "cell-based", "settings": "Homo sapiens, 120 h; RT-112, 5 days; read-out: 5-Day CTG EC50"}, "[4]": {"test_system": "RT-4 cells", "experiment": "Cell proliferation, 5-day CellTiter-Glo", "format": "cell-based", "settings": "Homo sapiens, 120 h; RT-4, 5 days; read-out: 5-Day CTG EC50"}, "[5]": {"test_system": "SW-780 cells", "experiment": "Cell proliferation, 5-day CellTiter-Glo", "format": "cell-based", "settings": "Homo sapiens, SW780, 120 h; SW-780, 5 days; read-out: 5-Day CTG EC50"}, "[6]": {"test_system": "human RT-112 urinary bladder transitional cell carcinoma xenograft (FGFR3-TACC3 fusion)", "settings": "for ΔT/ΔC / Final TV: 21 days; for Final TV: mean ± SEM", "from_the_text": "(§1) Groups and treatments were started when the mean tumor volume reached approximately 200-250 mm^3. Mice were assigned to respective groups based on their starting tumor volume and body weight such that the average values for both parameters were balanced for each treatment group."}, "[7]": {"test_system": "human SNU-16 gastric cancer xenograft (FGFR2 gene amplification)", "settings": "for ΔT/ΔC / Final TV: 21 days; for Final TV: mean ± SEM", "from_the_text": "as §1"}, "[8]": {"experiment": "Exposure in mice bearing RT-112 xenografts", "settings": "mouse, in vivo, PO QD 2-15 mg/kg, 24-hour period following the last dose", "description": "(§2) Three animals in the 15 mg/kg cohort lost >10% of their body weight during the course of treatment but recovered by end of study."}, "[9]": {"experiment": "Exposure in mice bearing SNU-16 xenografts", "settings": "mouse, in vivo, PO QD 2-15 mg/kg, 24-hour period following the last dose"}, "[10]": {"experiment": "Tolerability / body weight in RT-112 xenograft mice", "format": "in vivo", "settings": "RT-112 model", "description": "as §2"}, "[11]": {"experiment": "Tolerability / body weight in SNU-16 xenograft mice", "format": "in vivo", "settings": "SNU-16 model, all tested doses and schedules; lack of significant body weight changes", "from_the_text": "[…]. Treatment was initiated when tumor volumes were approximately 200-250 mm^3 (actual mean TV for all groups was 262 mm^3)."}, "[12]": {"target": "T1, TNK1 (Homo sapiens, UniProt Q13470)", "T1 sequence (Q13470 1-666)": "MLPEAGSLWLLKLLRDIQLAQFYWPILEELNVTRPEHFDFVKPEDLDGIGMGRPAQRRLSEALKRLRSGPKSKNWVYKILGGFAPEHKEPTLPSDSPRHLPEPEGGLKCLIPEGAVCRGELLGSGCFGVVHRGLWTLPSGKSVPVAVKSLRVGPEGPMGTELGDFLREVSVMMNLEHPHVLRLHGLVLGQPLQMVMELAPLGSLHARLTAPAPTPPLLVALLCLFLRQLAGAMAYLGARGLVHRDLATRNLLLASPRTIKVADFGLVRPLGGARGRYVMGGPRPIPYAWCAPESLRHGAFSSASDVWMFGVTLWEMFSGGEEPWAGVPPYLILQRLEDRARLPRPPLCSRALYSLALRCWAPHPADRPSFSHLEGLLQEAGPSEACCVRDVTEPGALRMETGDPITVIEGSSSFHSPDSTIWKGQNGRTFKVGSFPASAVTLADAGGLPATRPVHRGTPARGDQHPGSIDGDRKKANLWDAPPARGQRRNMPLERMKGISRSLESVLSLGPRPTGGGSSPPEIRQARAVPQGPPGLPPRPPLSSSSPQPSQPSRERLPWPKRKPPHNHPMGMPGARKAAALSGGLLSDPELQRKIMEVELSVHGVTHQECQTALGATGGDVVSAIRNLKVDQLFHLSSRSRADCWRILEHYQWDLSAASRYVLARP", "experiment": "Kinome selectivity screen by mobility shift assay (321 kinases)", "settings": "read-out: % Inhibition 1 μM"}, "[13]": {"target": "LOK (AKA STK10) (Homo sapiens, UniProt O94804)", "sequence (O94804 whole entry)": "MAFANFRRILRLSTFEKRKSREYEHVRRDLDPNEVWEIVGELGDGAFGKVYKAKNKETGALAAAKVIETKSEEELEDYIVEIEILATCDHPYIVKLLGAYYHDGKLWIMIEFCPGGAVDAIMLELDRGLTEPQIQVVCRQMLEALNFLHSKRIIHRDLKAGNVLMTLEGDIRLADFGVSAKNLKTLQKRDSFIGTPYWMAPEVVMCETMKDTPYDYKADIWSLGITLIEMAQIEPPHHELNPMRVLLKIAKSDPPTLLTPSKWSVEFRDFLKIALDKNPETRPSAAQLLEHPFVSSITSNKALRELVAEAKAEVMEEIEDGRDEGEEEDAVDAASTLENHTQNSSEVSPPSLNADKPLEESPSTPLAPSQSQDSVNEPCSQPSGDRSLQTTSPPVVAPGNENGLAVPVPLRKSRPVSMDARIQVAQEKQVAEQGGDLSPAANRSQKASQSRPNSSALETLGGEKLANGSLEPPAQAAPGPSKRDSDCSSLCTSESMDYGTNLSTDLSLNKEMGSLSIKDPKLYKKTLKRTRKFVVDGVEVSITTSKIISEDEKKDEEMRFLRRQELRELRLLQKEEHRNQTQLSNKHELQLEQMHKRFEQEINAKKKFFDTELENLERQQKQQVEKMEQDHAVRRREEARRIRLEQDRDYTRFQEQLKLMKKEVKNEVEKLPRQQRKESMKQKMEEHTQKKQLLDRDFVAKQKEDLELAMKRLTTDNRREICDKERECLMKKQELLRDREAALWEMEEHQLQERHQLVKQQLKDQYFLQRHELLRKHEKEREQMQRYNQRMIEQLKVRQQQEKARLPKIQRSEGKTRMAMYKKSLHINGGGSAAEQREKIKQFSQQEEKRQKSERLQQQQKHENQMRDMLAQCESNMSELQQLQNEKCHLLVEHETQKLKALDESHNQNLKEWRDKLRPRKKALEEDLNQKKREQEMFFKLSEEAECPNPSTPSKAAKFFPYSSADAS", "experiment": "Kinome selectivity screen by mobility shift assay (321 kinases)", "settings": "read-out: % Inhibition 1 μM"}, "[14]": {"test_system": "panel of 321 kinases", "experiment": "Kinome selectivity screen by mobility shift assay (whole panel)", "settings": "1 μM"}, "[15]": {"test_system": "endogenous FGFR in five human tumor cell lines", "settings": "read-out: EC50 values, inhibition of endogenous FGFR"}},
  "note": "Where two headings read alike, the source gives them in different places.",
  "data": [
    {"molecule": "C=CC(=O)N1C[C@@H](n2nc(C#Cc3c(F)cc4c(ncn4C4CC4)c3F)c(C(N)=O)c2NC)C[C@@H]1COC", "note": "[Compound 1, 1-((3S,5R)-1-acryloyl-5-(methoxymethyl)pyrrolidin-3-yl)-3-((1-cyclopropyl-4,6-difluoro-1H-benzo[d]imidazol-5-yl)ethynyl)-5-(methylamino)-1H-pyrazole-4-carboxamide]", "values": [
      {"measurement": "EC50", "setting": "[1]", "value": 3.89, "unit": "nM"},
      {"measurement": "EC50", "setting": "[2]", "value": 5.19, "unit": "nM"},
      {"measurement": "EC50", "setting": "[3]", "value": 4.14, "unit": "nM"},
      {"measurement": "EC50", "setting": "[4]", "value": 5.96, "unit": "nM"},
      {"measurement": "EC50", "setting": "[5]", "value": 4.14, "unit": "nM"},
      {"measurement": "ΔT/ΔC", "setting": "[6]; RT-112, 2 mg/kg QD PO", "value": 20, "unit": "%"},
      {"measurement": "Final TV", "setting": "[6]; RT-112, 2 mg/kg QD PO", "value": "446 ± 49", "unit": "mm^3"},
      {"measurement": "animals exhibiting tumor regression", "setting": "[6]; RT-112, 5 mg/kg QD", "value": "4 of 9"},
      {"measurement": "ΔT/ΔC", "setting": "[6]; RT-112, 5 mg/kg QD PO", "value": 9, "unit": "%"},
      {"measurement": "Final TV", "setting": "[6]; RT-112, 5 mg/kg QD PO", "value": "343 ± 57", "unit": "mm^3"},
      {"measurement": "animals exhibiting tumor regression", "setting": "[6]; RT-112, 15 mg/kg QD", "value": "4 of 9"},
      {"measurement": "ΔT/ΔC", "setting": "[6]; RT-112, 15 mg/kg QD PO", "value": 1, "unit": "%"},
      {"measurement": "Final TV", "setting": "[6]; RT-112, 15 mg/kg QD PO", "value": "274 ± 48", "unit": "mm^3"},
      {"measurement": "ΔT/ΔC", "setting": "[7]; SNU-16, 2 mg/kg QD PO", "value": 31, "unit": "%"},
      {"measurement": "Final TV", "setting": "[7]; SNU-16, 2 mg/kg QD PO", "value": "497 ± 22", "unit": "mm^3"},
      {"measurement": "ΔT/ΔC", "setting": "[7]; SNU-16, 5 mg/kg QD PO", "value": 19, "unit": "%"},
      {"measurement": "Final TV", "setting": "[7]; SNU-16, 5 mg/kg QD PO", "value": "410 ± 20", "unit": "mm^3"},
      {"measurement": "ΔT/ΔC", "setting": "[7]; SNU-16, 15 mg/kg QD PO", "value": 7, "unit": "%"},
      {"measurement": "Final TV", "setting": "[7]; SNU-16, 15 mg/kg QD PO", "value": "313 ± 13", "unit": "mm^3"},
      {"measurement": "animals with tumor regression", "setting": "[7]; SNU-16, 15 mg/kg QD cohort", "value": "one"},
      {"measurement": "AUC(0-t)", "setting": "[8]", "value": "1320 to 9760", "unit": "ng·h/mL"},
      {"measurement": "AUC(0-t)", "setting": "[9]", "value": "1090 to 9760", "unit": "ng·h/mL"},
      {"measurement": "average weight loss", "setting": "[10]; 15 mg/kg QD", "value": 5.4, "unit": "%"},
      {"measurement": "animals that lost >10% of their body weight during treatment (recovered by end of study)", "setting": "[10]; 15 mg/kg cohort (9 animals)", "value": "Three"},
      {"measurement": "tolerability", "setting": "[10]; all of the tested doses (2, 5, 15 mg/kg QD)", "value": "well tolerated"},
      {"measurement": "tolerability", "setting": "[11]", "value": "well tolerated"},
      {"measurement": "inhibition at 1 µM", "setting": "[12]", "value": 89.5, "unit": "%"},
      {"measurement": "inhibition at 1 µM", "setting": "[13]", "value": 64.6, "unit": "%"},
      {"measurement": "number of non-FGFR kinases with >40% inhibition", "setting": "[14]", "value": 2},
      {"measurement": "EC50", "setting": "[15]", "value": "1 to 6", "unit": "nM"}
    ]}
  ]
}
